A short description of series [1]: Solubility in emollients (visual inspection, maximum concentration before the solution turned cloudy). It is filed as physicochemical. As to the method: Increasing amounts of the compound were added to the solvent and stirred under nitrogen for 30 minutes at 45° C. After cooling to room temperature (22°±2° C.) the solutions were kept in the dark. After 1, 24 and 48 hours the solutions were visually inspected. The maximum concentration was determined before the solution turned cloudy, indicating the presence of insoluble crystals.

In another series the test system is healthy skin. The experiment in a line: Skin humidity of healthy skin (corneometer CM 820 PC), long-term effects of ceramide IIIA. It is filed as in vivo, female volunteers (human). The conditions noted are these: creams with 0.2% and 0.5% ceramide IIIA, twice daily, 28 days, compared to placebo. As for the experimental part: (§1) The corneometer CM 820 PC (Courage and Khazaka, Cologne, Germany) registers the electrical capacitance of the skin surface, which is a measure of the degree of moisture on the skin's surface. The capacitance is expressed digitally in arbitrary units (a.u.). Three measurements were performed on each test area and the mean was used to define hydration state of the stratum corneum.
(§2) The corneometer comprises a console and its sensor. The sensor is connected to the console by a special plug and coiled cable. The measurement is indicated on the 40×18 mm display screen on the console as a three-place number. The display also fulfils other information functions.
The sensor is rectangular in shape. Its special glass coated active front surface can be moved axially, and has a stroke of at least 3 mm. […]
(§3) The corneometer is completely automatic in operation. In order to carry out a measurement, the measuring head is pressed against the area of skin to be measured. […]
Measurements were carried out at a temperature of 22°±1° C. and a relative humidity of 60±10%. […] Initially untreated skin was measured in all three areas to find baseline values. […]
Measurements were evaluated during the treatment period on day 7, 14 and 28 two hours after the last daily application. The application was ceased on day 28 and further measurements were evaluated on day 30 and 32. […]

The test system of series [2] is SDS-damaged skin. The experiment in a line: Trans-epidermal water loss (TEWL) / barrier recovery of SDS-damaged skin (Tewameter). It is filed as in vivo, female volunteers (human). As to the method:
Measurements of trans-epidermal water loss (TEWL) were performed with the Tewameter (Courage & Khazaka, Cologne, Germany). The Tewameter is a device for measurement of water evaporation on skin surfaces based on the diffusion principle discovered by A. Fick in 1885.
Five female volunteers at the age of 22-43 years with healthy skin were included in the test.
Measurements were carried out at a temperature of 22°±1° C. and a relative humidity of 60±10%. Subjects were accustomed to ambient conditions for 20 min prior to any measurement. The test was carried out on the volar forearms. The skin of the forearms was treated with a 5% aqueous solution of sodium lauryl sulphate (SDS) and an occlusive dressing applied. The dressing was removed 2 h later, and the regions gently washed with water and air-dried. After 30 min the measurements were done. Then the three test products were applied, one area remained untreated. The dose of application was about 2 mg/cm^2. In the following 14 days a home application in the morning and evening took place.
Measurements were evaluated during the treatment period on day 3, 7 and 14 one hour after the last daily application. Use of other cosmetic products was restricted on the test areas throughout the whole study.

Series [3] relates to SDS-damaged skin. The experiment in a line: Skin humidity of SDS-damaged skin (corneometer CM 820 PC). It is filed as in vivo, female volunteers (human). Conditions: creams with 0.2% and 0.5% ceramide IIIA, 14 days, compared to placebo. As for the experimental part: as §1, §2
The sensor is rectangular in shape. Its special glass coated active front surface can be moved axially, and has a stroke of at least 3 mm. The measuring principle demands that the sensor surface be placed flat on the test object at a constant pressure. In order to ensure this as reproducibly as possible, the front surface of the measuring head has been designed to be very small (7×7 mm). […]
as §3
Measurements were evaluated during the treatment period on day 3, 7 and 14 one hour after the last daily application. […]

Setting [4] is: isocetyl alcohol (Eutanol G16) and/or isostearic acid (Emersol).
[5] abbreviates: isocetyl alcohol (Eutanol G16), stirred 45° C., room temperature (22°±2° C.), 1, 24 and 48 hours.

“Also recorded” adds a separate entry of the source.

Consider `CCCCCCCCCCCCCCCCCC(=O)N[C@@H](CO)[C@H](O)[C@H](O)CCCCCCCCCCCCCC` [Ceramide III, N-stearoylphytosphingosine, reference compound], for which the “Solubility” value in series [1] (setting [4]) is given as “less than 0.2 % (w/v)”; in series [1] (setting [5]), 0.16 % w/v.

Regarding `CCCCC/C=C\C/C=C\CCCCCCCC(=O)N[C@@H](CO)[C@H](O)[C@H](O)CCCCCCCCCCCCCC` [Ceramide IIIA, N-linoleoylphytosphingosine], the “Moisturizing effect (skin humidity)” value in the series on healthy skin is given as “clear moisture-retaining effect on healthy skin; also recorded: clear moisturizing effect compared to placebo”; with SDS-damaged skin [3] it was “increase of skin humidity of damaged skin compared to placebo”. The “Solubility, in words” value in series [1] (emollient solvents, compared with saturated analogue and ceramide 1) was “solubilizes much better than its saturated analogue and than ceramide 1”. The figures for the “Solubility” value in series [1] (setting [4]) and in series [1] (setting [5]) were ≥ 1 % (w/v) and 5 % w/v, respectively. In addition, the Trans-epidermal water loss entry in the series with SDS-damaged skin [2] (SDS-damaged skin, 14 days treatment, compared to placebo) is recorded as “a reduction of trans-epidermal water loss”. The “Restoration of the barrier layer” value in the series on SDS-damaged skin [2] (surfactant (SDS)-pretreated skin, compared to placebo product) is recorded as “high capacity for restoration of the impaired lipid barrier of the skin; also recorded: quicker recovery of the barrier layer of SDS-treated skin than the placebo product”.

For the origin of these results see patent US5840940A, “Linoleoylamide based ceramide derivative and its use in cosmetic preparations for the treatment of dry skin” (Gist-Brocades B.V., priority 1994, dated 1998).
